Results: paper PMC10569036

Assay: shake flask on a mixture of 185; loss from the water phase only; LC-Orbitrap peak areas
Conditions: room

SMILES | log partition 1-octanol / HPLC water, unbuffered, traces of methanol / DMSO | log partition butyl acetate / HPLC water, unbuffered, traces of methanol / DMSO | log partition chloroform / HPLC water, unbuffered, traces of methanol / DMSO | log partition cyclohexane / HPLC water, unbuffered, traces of methanol / DMSO | log partition dichloromethane / HPLC water, unbuffered, traces of methanol / DMSO | log partition n-hexane / HPLC water, unbuffered, traces of methanol / DMSO | log partition n-octane / HPLC water, unbuffered, traces of methanol / DMSO | log partition n-undecane / HPLC water, unbuffered, traces of methanol / DMSO | log partition oleylalcohol / HPLC water, unbuffered, traces of methanol / DMSO | log partition toluene / HPLC water, unbuffered, traces of methanol / DMSO
Cc1cc(O)cc(C)c1Cl | 0.7604 log10 | 0.7531 log10 | 0.7311 log10 | 0.5528 log10 | 0.8657 log10 | 0.611 log10 | 0.5049 log10 | 0.3954 log10 | 0.7156 log10 | 0.8203 log10
O=C(O)c1ccccc1C(c1ccc(O)cc1)c1ccc(O)cc1 | -0.6855 log10 | 0.116 log10 | -0.6877 log10 | -1.286 log10 | -0.3134 log10 | -0.9598 log10 | -1.232 log10 | -1.337 log10 | -0.1989 log10 | -0.7201 log10
OC(c1ccc(F)cc1)(c1cncnc1)c1ccccc1Cl (stereo not shown) | 2.087 log10 | 2.226 log10 | 2.317 log10 | 2.077 log10 | 2.933 log10 | 1.642 log10 | 1.699 log10 | 1.456 log10 | 1.561 log10 | 2.565 log10
CCOC(=O)CC(=O)c1ccccc1 | -0.2282 log10 | -0.1902 log10 | 0.1944 log10 | -1.116 log10 | -0.2025 log10 | -1.048 log10 | -1.147 log10 | -0.8216 log10 | -0.4257 log10 | -0.3454 log10
CCCCCCOc1cc(C)c(O)c(C)c1C | -0.6155 log10 | -0.05403 log10 | 0.3185 log10 | -0.4525 log10 | -0.07725 log10 | -0.4691 log10 | -0.1513 log10 | -0.6506 log10 | 0.4249 log10 | -0.2013 log10
CCCCCCCCCCCC(=O)OCC(O)CO (stereo not shown) | -0.5214 log10 | -0.773 log10 | -0.7717 log10 | -1.167 log10 | -0.6352 log10 | -1.755 log10 | -1.639 log10 | -1.584 log10 | -1.087 log10 | -1.18 log10

Second part, the molecule after the results:

log partition 1-octanol / HPLC water, unbuffered, traces of methanol / DMSO | log partition butyl acetate / HPLC water, unbuffered, traces of methanol / DMSO | log partition chloroform / HPLC water, unbuffered, traces of methanol / DMSO | log partition cyclohexane / HPLC water, unbuffered, traces of methanol / DMSO | log partition dichloromethane / HPLC water, unbuffered, traces of methanol / DMSO | log partition n-hexane / HPLC water, unbuffered, traces of methanol / DMSO | log partition n-octane / HPLC water, unbuffered, traces of methanol / DMSO | log partition n-undecane / HPLC water, unbuffered, traces of methanol / DMSO | log partition oleylalcohol / HPLC water, unbuffered, traces of methanol / DMSO | log partition toluene / HPLC water, unbuffered, traces of methanol / DMSO | SMILES
1.712 log10 | 0.5487 log10 | 0.2279 log10 |  | 0.3361 log10 |  |  |  | 0.1785 log10 | -0.2455 log10 | NC(=O)N/N=C/c1ccc([N+](=O)[O-])o1
1.387 log10 | 0.7851 log10 | 0.6596 log10 | -0.3102 log10 | 0.6345 log10 | 0.495 log10 | -0.2565 log10 | -0.1964 log10 | -0.5567 log10 | 0.2589 log10 | COc1ccccc1/C=C/C=O
0.2948 log10 | -0.12 log10 | 0.01457 log10 | -0.1351 log10 | 0.05615 log10 | -0.1023 log10 | -0.1158 log10 | 0.0297 log10 | 0.1091 log10 | 0.1587 log10 | C=CC(=O)OCC1CC2CC1C1CCC(COC(=O)C=C)C21 (stereo not shown)
0.3821 log10 | -0.9282 log10 | -0.4983 log10 | -0.222 log10 | -0.6955 log10 | 0.5227 log10 | 0.6442 log10 | 0.226 log10 | -0.06645 log10 | -0.371 log10 | CC(=O)c1ccc2ccccc2c1
-0.9913 log10 | -0.2228 log10 | 0.8465 log10 | -0.9247 log10 | 1.732 log10 | -0.7252 log10 | -1.742 log10 | -1.577 log10 | 0.1202 log10 | 0.5941 log10 | O=C1OC(=O)C2C3C=CC(C3)C12 (stereo not shown)
